Experiments:
human IL-1β = test: IL-1β assay: suppression of IL-1β production by LPS-stimulated PBMC (sandwich ELISA); format: cell-based; conditions: LPS 1 μg/ml, 72 hours at 37° C.
Method: (§1) Peripheral blood mononuclear cells (herein referred as PBMC), in response to stimulation by lipopolysaccharide (LPS), a gram-negative bacterial endotoxin, produce various […], in particular human TNF-α and IL-1β. The inhibition of the activation of PBMC can be measured by the level of suppression of the production of TNF-α or IL-1β by PBMC in response to stimulation by LPS.
(§2) Such inhibition measurement was performed as follows: PBMC were isolated from heparinized peripheral blood (Buffy coat) by density gradient centrifugation. LPS is then added to the PMBC suspension in complete medium (10^6 cells/ml) at a final concentration of 1 μg/ml. The pteridine derivative to be tested was added at different dilution levels, and the cells were incubated at 37° C. for 72 hours. The supernatants were collected, and TNF-α or IL-1β concentrations were measured with respectively an anti-TNF antibody or an anti-IL-1β antibody in a sandwich ELISA (Duo Set ELISA human TNFα, commercially available from R&D Systems, United Kingdom). The colorimetric reading of the ELISA was measured by a Multiskan RC plate reader (commercially available from ThermoLabsystems, Finland) at 450 nm (reference wavelength: 690 nm). Data analysis was performed with Ascent software 2.6. (also from ThermoLabsystems, Finland): a standard curve (recombinant human TNFα) was drawn and the amount (pg/ml) of each sample on the standard curve was determined.
(§3) The % inhibition of human TNF-α production or human IL-1β was calculated using the formula: % inhibition=[…] wherein: min.: pg/ml in culture medium without test compound, and
(§4) max.: pg/ml in culture medium+LPS without test compound.

C57BL/6 male mice = test: Protection against a lethal dose of TNF-α (TNF-α induced shock); format: in vivo; conditions: for Animals surviving 48 hours after TNF-α administration: TNF-α 10 μg i.v., 20 mg/kg/day i.p. three injections, total animals 9, 6, 6
Method: A model of TNF-α induced shock in C57BL/6 male mice was performed as follows. Animals from the control group received an Intravenous administration of a lethal dose of TNF-α (10 μg) in the tail. Animals from the test group received three intraperitoneous injections of a pteridine derivative (20 mg/kg/day) respectively 48 hours, 24 hours and immediately before an intravenous injection of TNF-α (10 μg).

C3H mice = test: Protection against lethal toxic shock (LPS injection); format: in vivo
[1] = system: melanoma (B16BL/6) in C57BL6 (B6) mice; test: Reduction of tumor growth while inhibiting TNF-α toxicity, melanoma tumor model; format: in vivo
Method: A tumor model of melanoma (B16BL/6) in C57BL6 (B6) mice was performed as follows. On day 1, a group of 18 B6 mice were injected with 1.5×10^6 B16BL/6 melanosarcoma cells. The group was further divided into the following subgroups 3 days after the tumor cells injection: • a first control sub-group of 6 mice received vehicle (physiological solution) 3 times a week starting on day 3; • a second control subgroup of 5 mice received TNF-α (15 μg) on day 5 and, for surviving animals, TNF-α was again administered 3 times a week for 2 weeks; • a test sub-group of 7 mice intraperitoneously received the pteridine derivative of example 24 at a dose of 20 mg/kg on each of days 3, 4 and 5; the latter third injection on day 5 occurred 2 hours before a first TNF-α intravenous injection (15 μg). Then the test compound (20 mg/kg/day) and TNF-α (15 μg/day) were administered each subcutaneously 3 times a week for 2 weeks.

human TNF-α = test: TNF-α assay: suppression of TNF-α production by LPS-stimulated PBMC (sandwich ELISA); format: cell-based; conditions: LPS 1 μg/ml, 72 hours at 37° C.
Method: as §1, §2, §3, §4

[2] = group of 16 C3H mice, 100 μg LPS i.p., 20 mg/kg/day i.p. for 2 days

Structure (SMILES)	IC50 (human TNF-α)	other results
COc1ccc(-c2cnc3nc(N)nc(N4CCOCC4)c3n2)cc1OC [Example 24, 2-amino-4-morpholino-6-(3,4-dimethoxyphenyl)pteridine]		IC50 (human IL-1β; Homo sapiens): 5.5 µM; Animals surviving 48 hours after TNF-α administration (C57BL/6 male mice): 7; body temperature (C57BL/6 male mice; followed for 48 hours after TNF-α 10 μg i.v., 20 mg/kg/day i.p. 48 h, 24 h and immediately before, control 28.2° C.): 30.1 °C; animals permanently survived the challenge of a LPS lethal dose (C3H mice; [2]): 14; animals showing a significantly prolonged survival (C3H mice; [2]): 2; prolonged survival (C3H mice; the 2 animals that did not survive permanently, controls die within 1-3 days): 5 days; average tumor size (largest diameter multiplied by smallest diameter) ([1]; after two weeks treatment together with TNF-α, first control group 439 mm^2): 144 mm^2; animals of the test sub-group survived ([1]; out of 7 tumor bearing mice, 20 mg/kg plus TNF-α 15 μg, second control group all died): 5
CC(C)Oc1nc(N)nc(N)c1N [Example 59, 2,5,6-triamino-4-isopropoxy-pyrimidine]	8 µM	
CC(C)Oc1nc(N)nc2ncc(Cl)nc12 [Example 65, 2-amino-6-chloro-4-isopropoxypteridine]	9.1 µM	
Cc1ccc(-c2cnc3nc(N)nc(OC(C)C)c3n2)cc1C [Example 85, 2-amino-6-(3,4-dimethylphenyl)-4-isopropoxypteridine]		IC50 (human IL-1β; Homo sapiens): > 40 µM
CC(C)Oc1nc(N)nc2ncc(-c3ccsc3)nc12 [Example 94, 2-amino-6-(3-thienyl)-4-isopropoxypteridine]	7.6 µM	
COc1ccc(-c2cnc3nc(N)nc(OC(C)C)c3n2)cc1OC [Example 98, 2-amino-6-(3,4-dimethoxyphenyl)-4-isopropoxypteridine]	3.5 µM	IC50 (human IL-1β; Homo sapiens): > 40 µM; Animals surviving 48 hours after TNF-α administration (C57BL/6 male mice): 3
COc1ccc(-c2cnc3nc(N)nc(N4CC=CCC4)c3n2)cc1OC [Example 119, 2-amino-4-(1,2,3,6-tetrahydropyridinyl)-6-(3,4-dimethoxyphenyl)pteridine]		IC50 (human IL-1β): 15 µM; Animals surviving 48 hours after TNF-α administration (C57BL/6 male mice): 3
Nc1nc(N2CCOCC2)c2nc(-c3ccc(NC(=O)COc4ccccc4)cc3)cnc2n1 [Example 160, 2-amino-4-morpholino-6-(4-phenoxyacetylaminophenyl)pteridine]	4.9 µM	
Nc1nc(N2CCOCC2)c2nc(-c3ccc(NC(=O)c4ccncc4)cc3)cnc2n1 [Example 166, 2-amino-4-morpholino-6-(4-isonicotinoylaminophenyl)pteridine]	4.4 µM	
Nc1nc(N2CCOCC2)c2nc(-c3cccc(NC(=O)c4ccccc4)c3)cnc2n1 [Example 171, 2-amino-4-morpholino-6-(3-benzoylaminophenyl)pteridine]	4.3 µM	
Nc1nc(N2CCOCC2)c2nc(-c3cccc(NS(=O)(=O)c4ccccc4)c3)cnc2n1 [Example 172, 2-amino-4-morpholino-6-(3-benzensulfonylaminophenyl)pteridine]	0.5 µM	
Nc1nc(N2CCOCC2)c2nc(-c3cccc(NC(=O)c4ccncc4)c3)cnc2n1 [Example 174, 2-amino-4-morpholino-6-(3-isonicotinoylaminophenyl)pteridine]	7.3 µM	
Nc1nc(N2CCOCC2)c2nc(-c3cccc(NC(=O)C4CCCCC4)c3)cnc2n1 [Example 175, 2-amino-4-morpholino-6-(3-cyclohexanoylaminophenyl)pteridine]	5 µM	
Nc1nc(N2CCOCC2)c2nc(-c3cccc(NC(=O)COCc4ccccc4)c3)cnc2n1 [Example 179, 2-amino-4-morpholino-6-(3-benzyloxyacetylaminophenyl)pteridine]	7.7 µM	
CCS(=O)(=O)Nc1cccc(-c2cnc3nc(N)nc(N4CCOCC4)c3n2)c1 [Example 180, 2-amino-4-morpholino-6-(3-ethylsulfonylaminophenyl)pteridine]	10 µM	
CCOc1ccc(-c2cnc3nc(N)nc(N4CCOCC4)c3n2)cc1 [Example 186, 2-amino-4-morpholino-6-(4-ethoxyphenyl)pteridine]	10 µM	
CCCOc1ccc(-c2cnc3nc(N)nc(N4CCOCC4)c3n2)cc1 [Example 190, 2-amino-4-morpholino-6-(4-propoxy-phenyl)pteridine]	10 µM	
COCCOc1ccc(-c2cnc3nc(N)nc(N4CCOCC4)c3n2)cc1 [Example 193, 2-amino-4-morpholino-6-(4-(2-methoxyethoxy)-phenyl)pteridine]	7.2 µM	

More lines, main results first:

IC50 (human TNF-α)	Structure (SMILES)	other results
10 µM	CCOc1nc(N)nc2ncc(-c3ccccc3OC)nc12 [Example 67, 2-amino-6-(o-methoxyphenyl)-4-ethoxy-pteridine]	
10 µM	CCOc1nc(N)nc2ncc(-c3cccc(OC)c3)nc12 [Example 68, 2-amino-6-(m-methoxyphenyl)-4-ethoxy-pteridine]	
8.5 µM	CCOc1nc(N)nc2ncc(-c3cccs3)nc12 [Example 72, 2-amino-6-(2-thienyl)-4-ethoxy-pteridine]	
8.1 µM	CCOc1nc(N)nc2ncc(-c3ccc(F)cc3)nc12 [Example 77, 2-amino-6-(p-fluorophenyl)-4-ethoxy-pteridine]	
6.8 µM	CCOc1nc(N)nc2ncc(-c3ccc(F)c(C)c3)nc12 [Example 80, 2-amino-6-(3-methyl-4-fluorophenyl)-4-ethoxy-pteridine]	
6.6 µM	CCOc1nc(N)nc2ncc(-c3ccc(OC)c(OC)c3)nc12 [Example 83, 2-amino-6-(3,4-dimethoxyphenyl)-4-ethoxy-pteridine]	
7.5 µM	CC(C)Oc1nc(N)nc2ncc(-c3ccc(F)c(Cl)c3)nc12 [Example 87, 2-amino-6-(3-chloro-4-fluorophenyl)-4-isopropoxypteridine]	
10 µM	CCOc1ccc(-c2cnc3nc(N)nc(OC(C)C)c3n2)cc1 [Example 92, 2-amino-6-(p-ethoxyphenyl)-4-isopropoxypteridine]	
9.1 µM	CC(=O)c1ccc(-c2cnc3nc(N)nc(OC(C)C)c3n2)cc1 [Example 97, 2-amino-6-(p-acetylphenyl)-4-isopropoxypteridine]	
10 µM	COc1ccc(-c2cnc3nc(NCc4cccs4)nc(N)c3n2)cc1OC [Example 143, 2-(2-thienylmethylamino)-4-amino-6-(3,4-dimethoxyphenyl)pteridine]	
9.3 µM	COc1ccc(-c2cnc3nc(NCc4ccccc4)nc(N)c3n2)cc1OC [Example 145, 2-benzylamino-4-amino-6-(3,4-dimethoxyphenyl)pteridine]	
